Experimental data taken from patent publication US9896422B2, “Tetracycline derivatives with reduced antibiotic activity and neuroprotective benefits” (Neumedics, priority 2008, dated 2018).
Like-named read-outs stand apart in the source and are kept apart here.

Assays:
E. Coli = assay: Antimicrobial susceptibility (zone of inhibition) test, Kirby-Bauer disc diffusion; type: cell-based; conditions: samples 30 ug/ml, Muller-Hinton agar, about 24 hrs
Description: (§1) Anti-microbial susceptibility (zone of inhibition) tests were conducted by an outside analytical laboratory. The Kirby-Bauer or disc diffusion method of assessing antimicrobial activity is an established literature procedure and was used with some modifications to the standard protocol: 1) S. Aureus and E. Coli were grown in Muller-Hinton broth and incubated at 30-35° C. for 18-24 hrs, 2) samples were diluted in sterile water for injections or pure water to achieve a concentration of 30 ug/ml and were plated in triplicate, and 3) the test plates were prepared using Muller-Hinton agar and incubated at 30-35° C. for approximately 24 hrs.
(§2) The diameters of the zone of inhibition (if present) around the test sample were measured using calibrated calipers. […] 3a has some activity (average zone of 24.45 mm) against S. Aureus.

S. Aureus = assay: as above; type: cell-based; conditions: for The diameter of the zone including sample: S. Aureus, samples 30 ug/ml, Muller-Hinton agar, about 24 hrs, average of triplicate; for antimicrobial activity in this assay: disc diffusion, S. Aureus and E. Coli, 30 ug/ml
Description: as §1, §2

[1] = Stability testing in solution; type: physicochemical; conditions: de-ionized water, saline and PBS at pH of about 3 to 7.5
Description: Compounds of the present invention will be stable in solution and/or in powder form. To test for stability in different solutions (e.g., de-ionized water, de-ionized water adjusted with K2HPO4 to pH 7.4, de-ionized water adjusted with NaOH to pH 9, saline solution or PBS). The compounds are tested for degradation at different times at different temperatures. By way of example, compound 3b was stable in de-ionized water saline and PBS at pH of about 3 to 7.5.

[2] = Intravenous blood brain barrier (BBB) penetration assay in mice; type: in vivo, CD-1 mice; conditions: 1 mg/kg tail-vein
Description: Intravenous blood brain barrier (BBB) penetration of Compounds 38 and 3b in mice was assessed by an outside analytical laboratory using the standard protocol. CD-1 mice were tail-vein injected with 38 or 3b (1 mg/kg, n=3), and the plasma and brain samples were collected at 30, 60 and 180 min time intervals. The concentration of 38 and 3b in brain (ng/g tissue), plasma and the ratio of the brain concentration at each time point were determined by acetonitrile precipitation of the test compounds from the samples followed by HPLC-MS?MS analysis.
After treatment of the animals with the test compounds, plasma samples were collected by cardiac puncture. Blood aliquots (300-400 μL) were collected in lithium heparincoated tubes, mixed gently, then kept on ice and centrifuged at 2,500×g for 15 minutes at 4° C. within 1 hour of collection. Plasma was then harvested and kept frozen at −20° C. until further processing.
Immediately after blood sampling, mice were decapitated and the whole brains were quickly removed, rinsed with cold saline (0.9% NaCl, g/mL), surface vasculature ruptured, blotted with dry gauze weighed and kept on ice until further processing within 1 hour of collection. Each brain was homogenized in 1.5 mL cold phosphate-buffered saline, pH 7.4, for 10 seconds on ice using a POWERGEN 125 homogenizer. Each sample was then stored at −20° C. until further processing.
Brain homogenates collected as above were processed by adding an equal volume of chilled 26% (g/mL) neutral Dextran (average MW 65,000-85,000, from Sigma, catalog number D-1390) solution to obtain a final Dextran concentration of 13%. The homogenate was centrifuged at 5400×g for 15 minutes at 4° C. Supernatents were subsequently processed using acetonitrile precipitation and analyzed by HPLC-MS. A brain calibration curve was generated by spiking drug-free brain homogenate from the control animals with test compound at specified concentration levels. The spiked brain homogenate samples were processed together with the unknowns using the same procedure. Processed brain samples were stored frozen (−20° C.) until LC-MS/MS analysis.
Plasma samples collected as above were processed and analyzed as for the brain homogenate supernatents described above.
After processing, all samples were analyzed using HPLC-MS/MS analysis. HPLC analysis employed a Synergi Max-RP 80 HPLC column (2×50 mm, 4 μm, Phenomenex Part No. 00B-4337-B0), using a first mobile phase of 13.3 mM ammonium formate/6.7 mM formic acid in water, and a second mobile phase of 6 mM ammonium formate/3 mM formic acid in water/CH3CN (1/9, v/v). MS/MS analysis was done on a TSQ QUANTUM with selected reaction monitoring, positive ion mode, using a capillary temperature of 325° C. and a capillary voltage of 4.0 kV. Peak areas were recorded, and the concentrations of the test compound in the unknown brain samples were determined using the respective calibration curves.

| SMILES | The diameter of the zone including sample (E. Coli) | The diameter of the zone including sample (S. Aureus) | antimicrobial activity in this assay (S. Aureus) | stability in solution [1] | blood brain barrier penetration in vivo [2] | concentration in the brain ([2]; 180 min, n=3) | concentration at 30 min ([2]; CD-1, mouse, brain, intravenous, 30 min, n=3, read-out: concentration in the brain) [ng/g] | concentration at 60 min ([2]; CD-1, mouse, brain, intravenous, n=3, read-out: concentration in the brain) [ng/g] | Kp at 0.5 h ([2]; CD-1, mouse, brain/plasma, intravenous, 30 min, read-out: Calculated ratio of brain to plasma concentration) | concentration at 30 min ([2]; CD-1, mouse, plasma, intravenous, 30 min, n=3, read-out: Plasma concentration) [ng/mL] | concentration at 60 min ([2]; CD-1, mouse, plasma, intravenous, n=3, read-out: Plasma concentration) [ng/mL] | concentration at 180 min ([2]; CD-1, mouse, plasma, intravenous, 180 min, n=3) [ng/mL] |
| --- | --- | --- | --- | --- | --- | --- | --- | --- | --- | --- | --- | --- |
| CN(C)c1cc2ncoc2c2c1C[C@H]1C[C@H]3[C@H](N(C)C)C(O)=C(C(N)=O)C(=O)[C@@]3(O)C(O)=C1C2=O [Compound 3a, (6aR,7aS,8S,11aS)-5,8-bis(dimethylamino)-9,11a,12trihydroxy-11,13-dioxo-6,6a,7,7a,8,11,11a,13-octahydrotetraceno[2,1-d]oxazole-10carboxamide] | no zone |  |  |  |  |  |  |  |  |  |  |  |
| CN(C)c1cc2[nH]c(=O)oc2c2c1C[C@H]1C[C@H]3[C@H](N(C)C)C(O)=C(C(N)=O)C(=O)[C@@]3(O)C(O)=C1C2=O [Compound 3b, (6aR,7aS,8S,11aS)-5,8bis(dimethylamino)-9,11a,12-trihydroxy-2,11,13-trioxo-2,3,6,6a,7,7a,8,11,11a,13decahydrotetraceno[2,1-d]oxazole-10-carboxamide] | no zone | no zone | no antimicrobial activity | stable | acceptable | below the limit of quantitation | 6.7 | 5.8 | 0.07 | 97 | 27 | 4 |
| CN(C)c1cc2c(c3c1C[C@H]1C[C@H]4[C@H](N(C)C)C(O)=C(C(N)=O)C(=O)[C@@]4(O)C(O)=C1C3=O)OCC(=O)N2 [Compound 38, (6aR,7aS,8S,11aS)-5,8-bis(dimethylamino)-9,11a,12-trihydroxy-2,11,13trioxo-2,3,6,6a,7,7a,8,11,11a,13-decahydrotetraceno[2,1-d]morpholine-10-carboxamide] | no zone | no zone | no antimicrobial activity |  |  |  |  |  |  |  |  |  |
